Measurements as given in US7696248B2 (Eli Lilly and Company, priority 2005, dated 2010).

Biological target: cloned human glucagon receptor (Homo sapiens, UniProt P47871)
Assay: Glucagon Receptor (hGlucR) Binding Assay
Description: This plasmid DNA is transfected into 293 HEK cells and selected with 200 μg/mL Hygromycin.
Crude plasma membranes are prepared using cells from suspension culture. The cells are lysed on ice in hypotonic buffer containing 25 mM Tris HCL, pH 7.5, 1 mM MgCl2, DNAse1, 20 u/mL, and Roche Complete Inhibitors-without EDTA. The cell suspension is homogenized with a glass dounce homogenizer using a Teflon pestle for 25 strokes. The homogenate is centrifuged at 4 degrees C. at 1800×g for 15 mins. The supernate is collected and the pellet is resuspended in hypotonic buffer and rehomogenized. The mixture is centrifuged at 1800×g for 15 mins. The second supernate is combined with the first supernate. The combined supernates are recentrifuged at 1800×g for 15 mins to clarify. The clarified supernate is transferred to high speed tubes and centrifuged at 25000×g for 30 minutes at 4 degrees C. The membrane pellet is resuspended in homogenization buffer and stored as frozen aliquots at −80 degree C. freezer until needed.
The specific activity is 2200 Ci/mmol.
The binding buffer contains 25 mM Hepes, pH 7.4, 2.5 mM CaCl2, 1 mM MgCl2, 0.1% fatty acid free BSA, (ICN), 0.003% tween-20, and Roche Complete Inhibitors without EDTA. […] Test compounds are dissolved in DMSO and serially diluted in DMSO. […] Plates are read with a MicroBeta after 14 hours of settling time at room temp. […]

Sequence of cloned human glucagon receptor (P47871 26-477): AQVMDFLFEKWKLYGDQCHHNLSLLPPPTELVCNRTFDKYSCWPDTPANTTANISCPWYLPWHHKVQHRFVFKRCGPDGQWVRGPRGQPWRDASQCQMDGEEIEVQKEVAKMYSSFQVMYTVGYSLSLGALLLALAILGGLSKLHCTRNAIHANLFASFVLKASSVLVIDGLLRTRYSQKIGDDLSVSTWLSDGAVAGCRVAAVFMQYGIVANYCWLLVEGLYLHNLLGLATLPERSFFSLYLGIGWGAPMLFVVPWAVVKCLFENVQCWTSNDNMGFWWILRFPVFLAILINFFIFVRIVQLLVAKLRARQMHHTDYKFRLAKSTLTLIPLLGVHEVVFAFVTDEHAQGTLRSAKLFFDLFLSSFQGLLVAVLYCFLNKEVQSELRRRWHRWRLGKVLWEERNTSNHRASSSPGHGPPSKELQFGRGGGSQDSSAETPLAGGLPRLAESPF

CC(C)CC(Nc1ccc(-c2ccc(C(C)(C)C)cc2)cc1)c1ccc(C(=O)NCCC(=O)O)cc1 (centres unmarked)
Ki: 40 nM

CCCCCC(Nc1ccc(-c2ccc(C#N)cc2)cc1)c1ccc(C(=O)NCCC(=O)O)cc1 (centres unmarked)
Ki: 173 nM
